Assay results taken from PubChem BioAssay AID1918993 (Molecular Pharmacology Branch, DTP, NCI, 2023).

Tested on: 233499-124-R-J3-PDC complex spheroid growth
Assay: Anticancer human tumor 233499-124-R-J3-PDC patient-derived colon adenocarcinoma cell line growth inhibition [AhR]
Conditions: for IC50: curve of first compound; for viability, T/C: stronger effect = lower value
Method in brief: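 Spheroids combined tumor cells with HUVEC endothelial cells and human MSCs as stroma. AhR antagonists were paired with standard or investigational drugs, each dosed in half-log steps down from near clinical Cmax, or from 10 microM where Cmax was unknown.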
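Note: spheroids exposed to agents for seven days before reading.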

For CC1(C)CCC(CN2CCN(c3ccc(C(=O)NS(=O)(=O)c4ccc(NCC5CCOCC5)c([N+](=O)[O-])c4)c(Oc4cnc5[nH]ccc5c4)c3)CC2)=C(c2ccc(Cl)cc2)C1 + Cc1cncc(-c2nc(NCCc3c[nH]c4ccccc34)c3ncn(C(C)C)c3n2)c1, the IC50 (second compound 0.1 µM) was over 10 µM, the IC50 (second compound 0.316 µM) was over 10 µM and the IC50 (second compound 1 µM) was over 10 µM. It also gave an IC50 (second compound 3.16 µM) of over 10 µM, an IC50 (second compound 10 µM) of under 0.0316 µM and a viability, T/C (second compound 0.1 µM, first compound 0.0316 µM) of 103%. For the same molecule, the viability, T/C (second compound 0.1 µM, first compound 0.1 µM) was 97.9%, the viability, T/C (second compound 0.1 µM, first compound 0.316 µM) was 92.6% and the viability, T/C (second compound 0.1 µM, first compound 1 µM) was 104%. It also gave a viability, T/C (second compound 0.1 µM, first compound 3.16 µM) of 100%, a viability, T/C (second compound 0.1 µM, first compound 10 µM) of 109% and a viability, T/C (second compound 0.316 µM, first compound 0.0316 µM) of 82%. It also gave a viability, T/C (second compound 0.316 µM, first compound 0.1 µM) of 95%, a viability, T/C (second compound 0.316 µM, first compound 0.316 µM) of 88.2% and a viability, T/C (second compound 0.316 µM, first compound 1 µM) of 95.7%. It also gave a viability, T/C (second compound 0.316 µM, first compound 3.16 µM) of 96.8%, a viability, T/C (second compound 0.316 µM, first compound 10 µM) of 96.3% and a viability, T/C (second compound 1 µM, first compound 0.0316 µM) of 94.6%. It also gave a viability, T/C (second compound 1 µM, first compound 0.1 µM) of 84.2%, a viability, T/C (second compound 1 µM, first compound 0.316 µM) of 85.8% and a viability, T/C (second compound 1 µM, first compound 1 µM) of 82%. For the same molecule, the viability, T/C (second compound 1 µM, first compound 3.16 µM) was 85.2%, the viability, T/C (second compound 1 µM, first compound 10 µM) was 89.3% and the viability, T/C (second compound 3.16 µM, first compound 0.0316 µM) was 71.6%. The viability, T/C (second compound 3.16 µM, first compound 0.1 µM) was 68.5%, the viability, T/C (second compound 3.16 µM, first compound 0.316 µM) was 76.5% and the viability, T/C (second compound 3.16 µM, first compound 1 µM) was 63.5%. It also gave a viability, T/C (second compound 3.16 µM, first compound 3.16 µM) of 70.3%, a viability, T/C (second compound 3.16 µM, first compound 10 µM) of 81.7% and a viability, T/C (second compound 10 µM, first compound 0.0316 µM) of 12%. It also gave a viability, T/C (second compound 10 µM, first compound 0.1 µM) of 9.79%, a viability, T/C (second compound 10 µM, first compound 0.316 µM) of 7.48% and a viability, T/C (second compound 10 µM, first compound 1 µM) of 23.7%. For the same molecule, the viability, T/C (second compound 10 µM, first compound 3.16 µM) was 8.38% and the viability, T/C (second compound 10 µM, first compound 10 µM) was 15.6%.
CCN(c1cc(-c2ccc(CN3CCOCC3)cc2)cc(C(=O)NCc2c(C)cc(C)[nH]c2=O)c1C)C1CCOCC1 + Cc1cncc(-c2nc(NCCc3c[nH]c4ccccc34)c3ncn(C(C)C)c3n2)c1 gave an IC50 (second compound 0.1 µM) of over 3 µM, an IC50 (second compound 0.316 µM) of over 3 µM and an IC50 (second compound 1 µM) of over 3 µM. The IC50 (second compound 3.16 µM) was over 3 µM, the IC50 (second compound 10 µM) was under 0.00949 µM and the viability, T/C (second compound 0.1 µM, first compound 0.00949 µM) was 99.1%. For the same molecule, the viability, T/C (second compound 0.1 µM, first compound 0.03 µM) was 101%, the viability, T/C (second compound 0.1 µM, first compound 0.0949 µM) was 76% and the viability, T/C (second compound 0.1 µM, first compound 0.3 µM) was 82.3%. It also gave a viability, T/C (second compound 0.1 µM, first compound 0.949 µM) of 95.6%, a viability, T/C (second compound 0.1 µM, first compound 3 µM) of 90.3% and a viability, T/C (second compound 0.316 µM, first compound 0.00949 µM) of 108%. For the same molecule, the viability, T/C (second compound 0.316 µM, first compound 0.03 µM) was 109%, the viability, T/C (second compound 0.316 µM, first compound 0.0949 µM) was 94.6% and the viability, T/C (second compound 0.316 µM, first compound 0.3 µM) was 100%. The viability, T/C (second compound 0.316 µM, first compound 0.949 µM) was 106%, the viability, T/C (second compound 0.316 µM, first compound 3 µM) was 94.6% and the viability, T/C (second compound 1 µM, first compound 0.00949 µM) was 80.3%. For the same molecule, the viability, T/C (second compound 1 µM, first compound 0.03 µM) was 79.6%, the viability, T/C (second compound 1 µM, first compound 0.0949 µM) was 75.7% and the viability, T/C (second compound 1 µM, first compound 0.3 µM) was 78.6%. The viability, T/C (second compound 1 µM, first compound 0.949 µM) was 80.5%, the viability, T/C (second compound 1 µM, first compound 3 µM) was 84% and the viability, T/C (second compound 3.16 µM, first compound 0.00949 µM) was 76.4%. It also gave a viability, T/C (second compound 3.16 µM, first compound 0.03 µM) of 76.9%, a viability, T/C (second compound 3.16 µM, first compound 0.0949 µM) of 82.4% and a viability, T/C (second compound 3.16 µM, first compound 0.3 µM) of 89.5%. It also gave a viability, T/C (second compound 3.16 µM, first compound 0.949 µM) of 73.2%, a viability, T/C (second compound 3.16 µM, first compound 3 µM) of 76% and a viability, T/C (second compound 10 µM, first compound 0.00949 µM) of 16.1%. It also gave a viability, T/C (second compound 10 µM, first compound 0.03 µM) of 21%, a viability, T/C (second compound 10 µM, first compound 0.0949 µM) of 9.73% and a viability, T/C (second compound 10 µM, first compound 0.3 µM) of 10.7%. The viability, T/C (second compound 10 µM, first compound 0.949 µM) was 16.7% and the viability, T/C (second compound 10 µM, first compound 3 µM) was 3.73%.
